How the values were obtained:
[1] = acceleration test (stability); format: physicochemical; details: 40° C.±2° C., relative humidity 75%±5%
Method: (§1) Stability tests were performed on the samples of Examples 1, 2, 3, 4 and 5. […] Please refer to the results of the acceleration test (40° C.±2° C., relative humidity 75%±5%) of Table 1 and the results of the long-term stability test (25° C.±2° C., relative humidity 60%±10%) of Table 2.

[2] = long-term stability test; format: physicochemical; details: 25° C.±2° C., relative humidity 60%±10%
Method: as §1

(S)-2-(4-fluorophenyl)-4-(piperidine-3-aminomethyl)thieno[2,3-d]pyridazine-7-carboxamide hydrochloride [Example 110601-3]
(%) Impurity B (%) ([1]; 0 month): 0.00% | Crystal form ([1]; 0 month): unchanged | appearance ([1]; 0 month): yellow crystalline powder | Enantiomer (%) ([1]; 0 month, hydrochloride): 0.09% | Impurity A (%) ([1]; 0 month, hydrochloride): 0.28% | Impurity C (%) ([1]; 0 month, hydrochloride): 0.02% | Loss on drying (%) ([1]; 0 month, hydrochloride): 7.2% | Single largest impurity (%) ([1]; 0 month, hydrochloride): 0.01% | Total relevant substances (%) ([1]; 0 month, hydrochloride): 0.37% | content(%) ([1]; 0 month, hydrochloride): 99.6% | Crystal form ([1]; 1 month): unchanged | Impurity C (%) ([1]; 1 month): 0.02% | appearance ([1]; 1 month): yellow crystalline powder | (%) Impurity B (%) ([1]; 1 month, hydrochloride): 0.03% | Enantiomer (%) ([1]; 1 month, hydrochloride): 0.11% | Impurity A (%) ([1]; 1 month, hydrochloride): 0.25% | Loss on drying (%) ([1]; 1 month, hydrochloride): 7.2% | Single largest impurity (%) ([1]; 1 month, hydrochloride): 0.02% | Total relevant substances (%) ([1]; 1 month, hydrochloride): 0.39% | content(%) ([1]; 1 month, hydrochloride): 100.0% | Crystal form ([1]; 2 months): unchanged | appearance ([1]; 2 months): yellow crystalline powder | (%) Impurity B (%) ([1]; 2 months, hydrochloride): 0.03% | Enantiomer (%) ([1]; 2 months, hydrochloride): 0.1% | Impurity A (%) ([1]; 2 months, hydrochloride): 0.26% | Impurity C (%) ([1]; 2 months, hydrochloride): 0.02% | Loss on drying (%) ([1]; 2 months, hydrochloride): 7.2% | Single largest impurity (%) ([1]; 2 months, hydrochloride): 0.03% | Total relevant substances (%) ([1]; 2 months, hydrochloride): 0.38% | content(%) ([1]; 2 months, hydrochloride): 98.2% | (%) Impurity B (%) ([1]; 3 months): 0.00% | Crystal form ([1]; 3 months): unchanged | Impurity C (%) ([1]; 3 months): 0.02% | appearance ([1]; 3 months): yellow crystalline powder | Enantiomer (%) ([1]; 3 months, hydrochloride): 0.09% | Impurity A (%) ([1]; 3 months, hydrochloride): 0.25% | Loss on drying (%) ([1]; 3 months, hydrochloride): 7.2% | Single largest impurity (%) ([1]; 3 months, hydrochloride): 0.02% | Total relevant substances (%) ([1]; 3 months, hydrochloride): 0.33% | content(%) ([1]; 3 months, hydrochloride): 99.9% | (%) Impurity B (%) ([1]; 6 months): 0.00% | Crystal form ([1]; 6 months): unchanged | Impurity C (%) ([1]; 6 months): 0.02% | appearance ([1]; 6 months): yellow crystalline powder | Enantiomer (%) ([1]; 6 months, hydrochloride): 0.08% | Impurity A (%) ([1]; 6 months, hydrochloride): 0.21% | Loss on drying (%) ([1]; 6 months, hydrochloride): 7.1% | Single largest impurity (%) ([1]; 6 months, hydrochloride): 0.02% | Total relevant substances (%) ([1]; 6 months, hydrochloride): 0.28% | content(%) ([1]; 6 months, hydrochloride): 99.7% | Crystal form ([2]; 0 month): unchanged | ImpurityB(%) ([2]; 0 month): 0.00% | Content (calculated by dried product )(%) ([2]; 0 month, hydrochloride): 99.6% | Enantiomers (%) ([2]; 0 month, hydrochloride): 0.09% | ImpurityA(%) ([2]; 0 month, hydrochloride): 0.28% | ImpurityC(%) ([2]; 0 month, hydrochloride): 0.02% | Loss on drying (%) ([2]; 0 month, hydrochloride): 7.2% | Single largest impurity (%) ([2]; 0 month, hydrochloride): 0.01% | Total relevant substances (%) ([2]; 0 month, hydrochloride): 0.37% | appearance ([2]; 0 month, hydrochloride): yellow crystalline powder | Crystal form ([2]; 3 months): unchanged | ImpurityB(%) ([2]; 3 months): 0.00% | ImpurityC(%) ([2]; 3 months): 0.02% | Content (calculated by dried product )(%) ([2]; 3 months, hydrochloride): 100.2% | Enantiomers (%) ([2]; 3 months, hydrochloride): 0.09% | ImpurityA(%) ([2]; 3 months, hydrochloride): 0.26% | Loss on drying (%) ([2]; 3 months, hydrochloride): 7.1% | Single largest impurity (%) ([2]; 3 months, hydrochloride): 0.03% | Total relevant substances (%) ([2]; 3 months, hydrochloride): 0.35% | appearance ([2]; 3 months, hydrochloride): yellow crystalline powder | Crystal form ([2]; 6 months): unchanged | ImpurityB(%) ([2]; 6 months): 0.00% | Content (calculated by dried product )(%) ([2]; 6 months, hydrochloride): 99.6% | Enantiomers (%) ([2]; 6 months, hydrochloride): 0.08% | ImpurityA(%) ([2]; 6 months, hydrochloride): 0.25% | ImpurityC(%) ([2]; 6 months, hydrochloride): 0.02% | Loss on drying (%) ([2]; 6 months, hydrochloride): 7.2% | Single largest impurity (%) ([2]; 6 months, hydrochloride): 0.03% | Total relevant substances (%) ([2]; 6 months, hydrochloride): 0.35% | appearance ([2]; 6 months, hydrochloride): yellow crystalline powder | Crystal form ([2]; 9 months): unchanged | ImpurityC(%) ([2]; 9 months): 0.02% | Content (calculated by dried product )(%) ([2]; 9 months, hydrochloride): 99.5% | Enantiomers (%) ([2]; 9 months, hydrochloride): 0.09% | ImpurityA(%) ([2]; 9 months, hydrochloride): 0.25% | ImpurityB(%) ([2]; 9 months, hydrochloride): 0.01% | Loss on drying (%) ([2]; 9 months, hydrochloride): 7.2% | Single largest impurity (%) ([2]; 9 months, hydrochloride): 0.02% | Total relevant substances (%) ([2]; 9 months, hydrochloride): 0.38% | appearance ([2]; 9 months, hydrochloride): yellow crystalline powder | Crystal form ([2]; 12 months): unchanged | ImpurityB(%) ([2]; 12 months): 0.01% | Single largest impurity (%) ([2]; 12 months): 0.02% | Content (calculated by dried product )(%) ([2]; 12 months, hydrochloride): 99.9% | Enantiomers (%) ([2]; 12 months, hydrochloride): 0.08% | ImpurityA(%) ([2]; 12 months, hydrochloride): 0.25% | ImpurityC(%) ([2]; 12 months, hydrochloride): 0.03% | Loss on drying (%) ([2]; 12 months, hydrochloride): 7.3% | Total relevant substances (%) ([2]; 12 months, hydrochloride): 0.35% | appearance ([2]; 12 months, hydrochloride): yellow crystalline powder | Crystal form ([2]; 18 months): unchanged | ImpurityB(%) ([2]; 18 months): 0.00% | Single largest impurity (%) ([2]; 18 months): 0.02% | Content (calculated by dried product )(%) ([2]; 18 months, hydrochloride): 101.1% | Enantiomers (%) ([2]; 18 months, hydrochloride): 0.06% | ImpurityA(%) ([2]; 18 months, hydrochloride): 0.25% | ImpurityC(%) ([2]; 18 months, hydrochloride): 0.03% | Loss on drying (%) ([2]; 18 months, hydrochloride): 7.1% | Total relevant substances (%) ([2]; 18 months, hydrochloride): 0.31% | appearance ([2]; 18 months, hydrochloride): yellow crystalline powder | Crystal form ([2]; 24 months): unchanged | Enantiomers (%) ([2]; 24 months): 0.08% | ImpurityB(%) ([2]; 24 months): 0.00% | ImpurityC(%) ([2]; 24 months): 0.02% | Single largest impurity (%) ([2]; 24 months): 0.02% | Content (calculated by dried product )(%) ([2]; 24 months, hydrochloride): 98.6% | ImpurityA(%) ([2]; 24 months, hydrochloride): 0.25% | Loss on drying (%) ([2]; 24 months, hydrochloride): 7.3% | Total relevant substances (%) ([2]; 24 months, hydrochloride): 0.34% | appearance ([2]; 24 months, hydrochloride): yellow crystalline powder | Crystal form ([2]; 36 months): unchanged | ImpurityC(%) ([2]; 36 months): 0.02% | Single largest impurity (%) ([2]; 36 months): 0.02% | Content (calculated by dried product )(%) ([2]; 36 months, hydrochloride): 99.7% | Enantiomers (%) ([2]; 36 months, hydrochloride): 0.06% | ImpurityA(%) ([2]; 36 months, hydrochloride): 0.26% | ImpurityB(%) ([2]; 36 months, hydrochloride): 0.01% | Loss on drying (%) ([2]; 36 months, hydrochloride): 7.0% | Total relevant substances (%) ([2]; 36 months, hydrochloride): 0.36% | appearance ([2]; 36 months, hydrochloride): yellow crystalline powder

Reference: patent US20230183259A1, “Crystal Form Of Thiofuran Pyridazine Compound, Preparation Method Therefor And Application Thereof” (ZHEJIANG MEDICINE CO., LTD. XINCHANG PHARMACEUTICAL FACTORY, priority 2020, published 2023)
